# Experimental data as given in Sander's compilation of Henry's law constants (doi:10.1016/j.atmosenv.2016.10.009).
# Assay: Henry solubility constant Hcp at 298.15 K (mol/(m3 Pa))
# Settings: reference: Odabasi and Adali (2016)
row,Henry solubility constant Hcp,Structure (SMILES)
1,0.93,"Clc1c(Cl)c(Cl)c2c(Cl)ccc(Cl)c2c1Cl [1,2,3,4,5,8-hexachloronaphthalene]"
2,0.1,"Clc1cc(Cl)c2c(Cl)c(Cl)cc(Cl)c2c1 [1,2,4,6,8-pentachloronaphthalene]"
3,0.17,"Clc1ccc2c(Cl)c(Cl)ccc2c1 [1,2,6-trichloronaphthalene]"
4,2.4,"Clc1cc(Cl)c2c(Cl)c(Cl)c(Cl)c(Cl)c2c1Cl [1,2,3,4,5,6,8-heptachloronaphthalene]"
5,0.071,"Clc1cc(Cl)c2cccc(Cl)c2c1 [1,3,5-trichloronaphthalene]"
6,0.078,"Clc1ccc2c(Cl)c(Cl)c(Cl)c(Cl)c2c1 [1,2,3,4,6-pentachloronaphthalene]"
7,0.22,"Clc1ccc(Cl)c2c(Cl)cccc12 [1,4,5-trichloronaphthalene]"
8,0.11,"Clc1ccc2c(Cl)cccc2c1Cl [1,2,5-trichloronaphthalene]"
9,0.17,"Clc1ccc2c(Cl)cc(Cl)c(Cl)c2c1Cl [1,2,4,7,8-pentachloronaphthalene]"
10,0.14,"Clc1cc(Cl)c2c(Cl)c(Cl)ccc2c1Cl [1,2,4,5,6-pentachloronaphthalene]"
11,3.6,"Clc1cc2c(Cl)c(Cl)c(Cl)c(Cl)c2c(Cl)c1Cl [1,2,3,4,5,6,7-heptachloronaphthalene]"
12,0.15,"Clc1cc(Cl)c2c(Cl)cccc2c1Cl [1,2,4,5-tetrachloronaphthalene]"
13,0.26,"Clc1cc(Cl)c2c(Cl)ccc(Cl)c2c1Cl [1,2,4,5,8-pentachloronaphthalene]"
14,0.089,"Clc1cc(Cl)c2c(Cl)cc(Cl)c(Cl)c2c1 [1,2,4,5,7-pentachloronaphthalene]"
15,0.78,"Clc1ccc2c(Cl)c(Cl)c(Cl)c(Cl)c2c1Cl [1,2,3,4,5,6-hexachloronaphthalene]"
16,0.43,"Clc1cc2c(Cl)cc(Cl)c(Cl)c2c(Cl)c1Cl [1,2,3,5,7,8-hexachloronaphthalene]"
17,0.35,"Clc1ccc(Cl)c2c(Cl)ccc(Cl)c12 [1,4,5,8-tetrachloronaphthalene]"
18,0.17,"Clc1cc2c(Cl)ccc(Cl)c2c(Cl)c1Cl [1,2,3,5,8-pentachloronaphthalene]"

row,Structure (SMILES),Henry solubility constant Hcp
1,Clc1c(Cl)c(Cl)c2c(Cl)c(Cl)c(Cl)c(Cl)c2c1Cl [octachloronaphthalene],1.2
